From patent US8124624B2, “Substituted sulfonamide compounds” (Gruenenthal GmbH, priority 2008, dated 2012)
Read-outs that look alike come from different tables or passages of the source.

Legend:
[1] = target: T1, human B1R (Homo sapiens, UniProt P46663); test: FLIPR Ca2+ influx assay, B1R antagonism, human (hB1R CHO K1 cells); assay type: cell-based
T1 construct: expressed in transfected cells; host or cells: CHO K1 cells (hB1R cells)
T1 sequence (P46663 1-353): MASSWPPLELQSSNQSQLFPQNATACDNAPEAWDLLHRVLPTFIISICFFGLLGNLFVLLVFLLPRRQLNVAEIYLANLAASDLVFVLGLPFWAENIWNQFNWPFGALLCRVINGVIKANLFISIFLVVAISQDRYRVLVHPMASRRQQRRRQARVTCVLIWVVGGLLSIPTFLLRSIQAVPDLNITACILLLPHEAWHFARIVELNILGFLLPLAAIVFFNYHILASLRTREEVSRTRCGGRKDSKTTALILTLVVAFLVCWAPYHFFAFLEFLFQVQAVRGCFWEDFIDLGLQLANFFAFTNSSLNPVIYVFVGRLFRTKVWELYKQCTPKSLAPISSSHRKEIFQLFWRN
Experimental: (§1) The agonistic or antagonistic action of substances can be quantified on the bradykinin receptor 1 (B1R) of the species human and rat using ectopically expressing cell lines (CHO K1 cells) and with the aid of a Ca^2+-sensitive dye (Fluo-4) using a fluorescent imaging plate reader (FLIPR). The indication in % activation is based on the Ca^2+ signal after addition of Lys-Des-Arg^9-bradykinin (0.5 nM) or Des-Arg^9-bradykinin (100 nM). Antagonists lead to suppression of the Ca^2+ influx after the addition of the agonist. % Inhibition compared with the maximum achievable inhibition is indicated.
(§2) The agonistic or antagonistic action of substances can be determined on the bradykinin receptor 1 (B1R) of the species human and rat using the following assay. According to this assay, the Ca^2+ influx through the channel is quantified with the aid of a Ca^2+-sensitive dye (Fluo-4 type, Molecular Probes Europe BV, Leiden, Netherlands) using a Fluorescent Imaging Plate Reader (FLIPR, Molecular Devices, Sunnyvale, USA).
(§3) Chinese hamster ovary cells (CHO K1 cells) which have been stably transfected with the human B1R gene (hB1R cells) or with the B1R gene of the rat (rB1R cells) are used. For functional studies, the cells are plated out on black 96-well plates having a clear base (BD Biosciences, Heidelberg, Germany or Greiner, Frickenhausen, Germany) in a density of 20,000-35,000 cells/well. The cells are incubated overnight at 37° C. and with 5% CO2 in culture medium (hB1R cells: Nutrient Mixture Ham's F12, Gibco Invitrogen GmbH, Karlsruhe, Germany or DMEM, Sigma-Aldrich, Taufkirchen, Germany; rB1R cells: D-MEM/F12, Gibco Invitrogen GmbH, Karlsruhe, Germany), with 10 vol. % FBS (fetal bovine serum, Gibco Invitrogen GmbH, Karlsruhe, Germany or PAN Biotech GmbH, Aidenbach, Germany).
(§4) On the following day, the cells are loaded for 60 minutes at 37° C. with 2.13 μM Fluo-4 (Molecular Probes Europe BV, Leiden, Netherlands) in HBSS buffer (Hank's buffered saline solution, Gibco Invitrogen GmbH, Karlsruhe, Germany) […] (Sigma-Aldrich, Taufkirchen, Germany) and 10 mM HEPES (Sigma-Aldrich, Taufkirchen, Germany). The plates are then washed twice with HBSS buffer, and HBSS buffer additionally containing 0.1% BSA (bovine serum albumin; Sigma-Aldrich, Taufkirchen, Germany), 5.6 mM glucose and 0.05% gelatin (Merck KGaA, Darmstadt, Germany) is added to the plates. After incubation for a further 20 minutes at room temperature, the plates are inserted into the FLIPR for Ca^2+ measurement.
(§5) Alternatively, washing is carried out with buffer A (15 mM HEPES, 80 mM NaCl, 5 mM KCl, 1.2 mM CaCl2, 0.7 mM MgSO4, 2 g/l glucose, 2.5 mM probenecid) followed by loading with buffer A with added 2.5 μM Fluo-4 and 0.025% Pluronic F127 (Sigma-Aldrich, Taufkirchen, Germany). The cells are then washed twice with buffer A and incubated for 30 minutes at room temperature with buffer A additionally containing 0.05% BSA and 0.05% gelatin and are then inserted into the FLIPR for Ca^2+ measurement.
(§6) The Ca^2+-dependent fluorescence is measured before and after the addition of substances (λex=488 nm, λem=540 nm). Quantification is carried out by measuring the highest fluorescence intensity (FC, fluorescence counts) over time.
(§7) The FLIPR protocol consists of two substance additions. Test substances (10 μM) are first pipetted onto the cells and the Ca^2+ influx is compared with the control (hB1R: Lys-Des-Arg^9-bradykinin >=50 nM; rB1R: Des-Arg^9-bradykinin 10 μM). This gives the activation in %, based on the Ca^2+ signal after addition of Lys-Des-Arg^9-bradykinin (>=50 nM) or Des-Arg^9-bradykinin (10 μM). After 10-20 minutes' incubation, Lys-Des-Arg^9-bradykinin (hB1R) or Des-Arg^9-bradykinin (rB1R) is applied in the concentration of the EC80, and the influx of Ca^2+ is likewise determined. Antagonists lead to suppression of the Ca^2+ influx. The % inhibition compared with the maximum achievable inhibition is calculated. […]

[2] = target: T2, B1R of the rat (Rattus norvegicus, UniProt P97583); test: FLIPR Ca2+ influx assay, B1R antagonism, rat (rB1R CHO K1 cells); assay type: cell-based
T2 construct: expressed in transfected cells; host or cells: CHO K1 cells (rB1R cells)
T2 sequence (P97583 1-337): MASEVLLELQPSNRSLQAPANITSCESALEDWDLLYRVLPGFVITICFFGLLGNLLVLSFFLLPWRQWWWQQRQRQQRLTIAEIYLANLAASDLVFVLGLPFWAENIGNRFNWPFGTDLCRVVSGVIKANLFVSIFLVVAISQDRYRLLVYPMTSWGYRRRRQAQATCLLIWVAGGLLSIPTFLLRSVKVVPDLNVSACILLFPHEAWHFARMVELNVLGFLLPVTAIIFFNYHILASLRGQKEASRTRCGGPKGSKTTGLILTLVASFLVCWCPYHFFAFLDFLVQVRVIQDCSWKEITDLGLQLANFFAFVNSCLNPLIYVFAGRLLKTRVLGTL
Experimental: as §1, §2, §3, §4, §5, §6, §7

[3] = CHO-K1, read-out: B1R antagonism, human [10 μM] % inhibition
[4] = CHO-K1, read-out: B1R antagonism, rat [10 μM] % inhibition
[5] = test substance 10 μM, CHO K1 cells stably transfected with human B1R, agonist Lys-Des-Arg9-bradykinin at EC80, % inhibition compared with maximum achievable inhibition, read-out: B1R antagonism, human [10 μM] % inhibition
[6] = test substance 10 μM, CHO K1 cells stably transfected with rat B1R, agonist Des-Arg9-bradykinin at EC80, % inhibition compared with maximum achievable inhibition, read-out: B1R antagonism, rat [10 μM] % inhibition

| SMILES | inhibition at 10 µM [1, 5] | inhibition at 10 µM [2, 6] | inhibition at 10 µM [1, 3] | inhibition at 10 µM [2, 4] |
| --- | --- | --- | --- | --- |
| COc1cc(C)c(S(=O)(=O)N(C)CCOCC(=O)N2CCC(CCN3CCCC3)(c3cccnc3)CC2)c(C)c1 [Example 3, 4-Methoxy-N,2,6-trimethyl-N-(2-(2-oxo-2-(4-(pyridin-3-yl)-4-(2-(pyrrolidin-1-yl)ethyl)piperidin-1-yl)ethoxy)ethyl)benzenesulfonamide] | – | – | 103% | 101% |
| O=C(CC1CCCCN1S(=O)(=O)c1cccc(C(F)(F)F)c1)N1CCC(CCN2CCCC2)(c2cccnc2)CC1 (stereo not drawn) [Example 4, 1-(4-(Pyridin-3-yl)-4-(2-(pyrrolidin-1-yl)ethyl)piperidin-1-yl)-2-(1-(3-(trifluoromethyl)phenylsulfonyl)piperidin-2-yl)ethanone] | – | – | 103% | 102% |
| Cc1cc(S(=O)(=O)N2CCCCC2CCC(=O)N2CCC(CCN3CCCC3)(c3cccnc3)CC2)c(C)cc1Cl (stereo not drawn) [Example 5, 3-(1-(4-Chloro-2,5-dimethylphenylsulfonyl)piperidin-2-yl)-1-(4-(pyridin-3-yl)-4-(2-(pyrrolidin-1-yl)ethyl)piperidin-1-yl)propan-1-one] | 101% | 61% | – | – |
| O=C(COCC1CCc2ccccc2N1S(=O)(=O)c1ccc(Cl)c(Cl)c1)N1CCC(CCN2CCCC2)(c2cccnc2)CC1 (stereo not drawn) [Example 6, 2-((1-(3,4-Dichlorophenylsulfonyl)-1,2,3,4-tetrahydroquinolin-2-yl)methoxy)-1-(4-(pyridin-3-yl)-4-(2-(pyrrolidin-1-yl)ethyl)piperidin-1-yl)ethanone] | 100% | 85% | – | – |
| CN(C)CCC1(c2cccnc2)CCN(C(=O)CC(NS(=O)(=O)c2ccc3ccccc3c2)c2ccccc2)CC1 (stereo not drawn) [Example 7, N-(3-(4-(2-(Dimethylamino)ethyl)-4-(pyridin-3-yl)piperidin-1-yl)-3-oxo-1-phenylpropyl)naphthalene-2-sulfonamide] | 89% | 37% | – | – |
| COc1cc(C)c(S(=O)(=O)N2CCCCC2COCC(=O)N2CCC(CCN(C)C)(c3cccnc3)CC2)c(C)c1 (stereo not drawn) [Example 8, 1-(4-(2-(Dimethylamino)ethyl)-4-(pyridin-3-yl)piperidin-1-yl)-2-((1-(4-methoxy-2,6-dimethylphenylsulfonyl)piperidin-2-yl)methoxy)ethanone] | 104% | 102% | – | – |
| COc1cc(C)c(S(=O)(=O)N(C)CCOCC(=O)N2CCC(CCN(C)C)(c3cccnc3)CC2)c(C)c1 [Example 9, N-(2-(2-(4-(2-(Dimethylamino)ethyl)-4-(pyridin-3-yl)piperidin-1-yl)-2-oxoethoxy)ethyl)-4-methoxy-N,2,6-trimethylbenzenesulfonamide] | 104% | 102% | – | – |
| CN(C)CCC1(c2cccnc2)CCN(C(=O)CC2CCCCN2S(=O)(=O)c2cccc(C(F)(F)F)c2)CC1 (stereo not drawn) [Example 10, 1-(4-(2-(Dimethylamino)ethyl)-4-(pyridin-3-yl)piperidin-1-yl)-2-(1-(3-(trifluoromethyl)phenylsulfonyl)piperidin-2-yl)ethanone] | 103% | 65% | – | – |
| Cc1cc(S(=O)(=O)N2CCCCC2CCC(=O)N2CCC(CCN(C)C)(c3cccnc3)CC2)c(C)cc1Cl (stereo not drawn) [Example 11, 3-(1-(4-Chloro-2,5-dimethylphenylsulfonyl)piperidin-2-yl)-1-(4-(2-(dimethylamino)ethyl)-4-(pyridin-3-yl)piperidin-1-yl)propan-1-one] | 102% | 101% | – | – |

Further lines, with some results ahead:

| inhibition at 10 µM [1, 5] | inhibition at 10 µM [2, 6] | SMILES | inhibition at 10 µM [1, 3] | inhibition at 10 µM [2, 4] |
| --- | --- | --- | --- | --- |
| 103% | 90% | CN(C)CCC1(c2cccnc2)CCN(C(=O)COCC2CCc3ccccc3N2S(=O)(=O)c2ccc(Cl)c(Cl)c2)CC1 (stereo not drawn) [Example 12, 2-((1-(3,4-Dichlorophenylsulfonyl)-1,2,3,4-tetrahydroquinolin-2-yl)methoxy)-1-(4-(2-(dimethylamino)ethyl)-4-(pyridin-3-yl)piperidin-1-yl)ethanone] | – | – |
| 97% | 101% | COc1cc(C)c(S(=O)(=O)N(C)CCOCC(=O)N2CCC(CCCN3CCCC3)(c3cccnc3)CC2)c(C)c1 [Example 13, 4-Methoxy-N,2,6-trimethyl-N-(2-(2-oxo-2-(4-(pyridin-3-yl)-4-(3-(pyrrolidin-1-yl)propyl)piperidin-1-yl)ethoxy)ethyl)benzenesulfonamide] | – | – |
| 35% | 64% | O=C(CC1CCCCN1S(=O)(=O)c1cccc(C(F)(F)F)c1)N1CCC(CCCN2CCCC2)(c2cccnc2)CC1 (stereo not drawn) [Example 14, 1-(4-(Pyridin-3-yl)-4-(3-(pyrrolidin-1-yl)propyl)piperidin-1-yl)-2-(1-(3-(trifluoromethyl)phenylsulfonyl)piperidin-2-yl)ethanone] | – | – |
| 84% | 76% | Cc1cc(S(=O)(=O)N2CCCCC2CCC(=O)N2CCC(CCCN3CCCC3)(c3cccnc3)CC2)c(C)cc1Cl (stereo not drawn) [Example 15, 3-(1-(4-Chloro-2,5-dimethylphenylsulfonyl)piperidin-2-yl)-1-(4-(pyridin-3-yl)-4-(3-(pyrrolidin-1-yl)propyl)piperidin-1-yl)propan-1-one] | – | – |
| 97% | 102% | COc1cc(C)c(S(=O)(=O)N2CCCCC2COCC(=O)N2CCC(CCCN3CCCC3)(c3cccnc3)CC2)c(C)c1 (stereo not drawn) [Example 16, 2-((1-(4-Methoxy-2,6-dimethylphenylsulfonyl)piperidin-2-yl)methoxy)-1-(4-(pyridin-3-yl)-4-(3-(pyrrolidin-1-yl)propyl)piperidin-1-yl)ethanone] | – | – |
| 94% | 81% | O=C(CC(NS(=O)(=O)c1ccc2ccccc2c1)c1ccccc1)N1CCC(CCCN2CCCC2)(c2cccnc2)CC1 (stereo not drawn) [Example 17, N-(3-Oxo-1-phenyl-3-(4-(pyridin-3-yl)-4-(3-(pyrrolidin-1-yl)propyl)piperidin-1-yl)propyl)naphthalene-2-sulfonamide] | – | – |
